How the values were obtained:
A-1 fibroblasts = conditions: previous report; ref Roch et al., 1992; cited from earlier work
A-1 cells = type: cell-based; conditions: included in the assay media at 100 ug/ml; data not shown

Row | Substance | Activity on the A-1 cell growth assay (A-1 fibroblasts) | Inhibition of the growth-promoting effect of 17-mer or KB75 (A-1 cells)
1 | TPDAVDKYLETPGDENEHAHFQKAKERLEAKHRERMSQVM [40-mer] | active | 
2 | heparan sulfate |  | failed to inhibit
3 | heparin |  | failed to inhibit
